In PubChem BioAssay AID1963975 (Molecular Pharmacology Branch, DTP, NCI, 2024):
Each block holds one compound with its values, some of them ahead of it.

Tested on: 624824-186-R-J2-PDC multicell spheroids, viability
Assay: Anticancer human tumor 624824-186-R-J2-PDC patient-derived colon adenocarcinoma cell line growth inhibition [PI3K]
Settings: for viability, T/C: stronger effect = lower value
In short: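 Viability of mixed-cell spheroids was determined after exposure to pairwise combinations, one partner being inavolisib, alpelisib, duvelisib or copanlisib. Highest tested concentration matched clinical Cmax where known and 10 microM where not, descending in half-log steps.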

[1] = curve of first compound, second compound 0.0316 µM
[2] = curve of first compound, second compound 0.1 µM
[3] = curve of first compound, second compound 0.316 µM
[4] = curve of first compound, second compound 1 µM
[5] = curve of first compound, second compound 3.16 µM
[6] = curve of first compound, second compound 10 µM
[7] = second compound 0.0316 µM, first compound 0.0316 µM
[8] = second compound 0.0316 µM, first compound 0.1 µM
[9] = second compound 0.0316 µM, first compound 0.316 µM
[10] = second compound 0.0316 µM, first compound 1 µM
[11] = second compound 0.0316 µM, first compound 3.16 µM
[12] = second compound 0.0316 µM, first compound 10 µM
[13] = second compound 0.1 µM, first compound 0.0316 µM
[14] = second compound 0.1 µM, first compound 0.1 µM
[15] = second compound 0.1 µM, first compound 0.316 µM
[16] = second compound 0.1 µM, first compound 1 µM
[17] = second compound 0.1 µM, first compound 3.16 µM
[18] = second compound 0.1 µM, first compound 10 µM
[19] = second compound 0.316 µM, first compound 0.0316 µM
[20] = second compound 0.316 µM, first compound 0.1 µM
[21] = second compound 0.316 µM, first compound 0.316 µM
[22] = second compound 0.316 µM, first compound 1 µM
[23] = second compound 0.316 µM, first compound 3.16 µM
[24] = second compound 0.316 µM, first compound 10 µM
[25] = second compound 1 µM, first compound 0.0316 µM
[26] = second compound 1 µM, first compound 0.1 µM
[27] = second compound 1 µM, first compound 0.316 µM
[28] = second compound 1 µM, first compound 1 µM
[29] = second compound 1 µM, first compound 3.16 µM
[30] = second compound 1 µM, first compound 10 µM
[31] = second compound 3.16 µM, first compound 0.0316 µM
[32] = second compound 3.16 µM, first compound 0.1 µM
[33] = second compound 3.16 µM, first compound 0.316 µM
[34] = second compound 3.16 µM, first compound 1 µM
[35] = second compound 3.16 µM, first compound 3.16 µM
[36] = second compound 3.16 µM, first compound 10 µM
[37] = second compound 10 µM, first compound 0.0316 µM
[38] = second compound 10 µM, first compound 0.1 µM
[39] = second compound 10 µM, first compound 0.316 µM
[40] = second compound 10 µM, first compound 1 µM
[41] = second compound 10 µM, first compound 3.16 µM
[42] = second compound 10 µM, first compound 10 µM
[43] = curve of first compound, second compound 0.00316 µM
[44] = curve of first compound, second compound 0.01 µM
[45] = second compound 0.00316 µM, first compound 0.0316 µM
[46] = second compound 0.00316 µM, first compound 0.1 µM
[47] = second compound 0.00316 µM, first compound 0.316 µM
[48] = second compound 0.00316 µM, first compound 1 µM
[49] = second compound 0.00316 µM, first compound 3.16 µM
[50] = second compound 0.00316 µM, first compound 10 µM
[51] = second compound 0.01 µM, first compound 0.0316 µM
[52] = second compound 0.01 µM, first compound 0.1 µM
[53] = second compound 0.01 µM, first compound 0.316 µM
[54] = second compound 0.01 µM, first compound 1 µM
[55] = second compound 0.01 µM, first compound 3.16 µM
[56] = second compound 0.01 µM, first compound 10 µM
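Also: spheroids exposed to agents for 7 days before viability read.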
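For viability, T/C in this document: 100% = DMSO vehicle treated spheroids.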

Structure (SMILES): CC(Cn1ccc(-c2ccc(C#N)c(Cl)c2)n1)NC(=O)c1cc(C(C)O)[nH]n1 (stereo not drawn) + CC(Nc1ccc2c(c1)OCCn1cc(N3C(=O)OCC3C(F)F)nc1-2)C(N)=O
IC50 [43]: > 10 µM | IC50 [44]: > 10 µM | IC50 [1]: > 10 µM | IC50 [2]: > 10 µM | IC50 [3]: > 10 µM | IC50 [4]: > 10 µM | viability, T/C [45]: 86.5% | viability, T/C [46]: 102% | viability, T/C [47]: 108% | viability, T/C [48]: 103% | viability, T/C [49]: 107% | viability, T/C [50]: 127% | viability, T/C [51]: 124% | viability, T/C [52]: 88.3% | viability, T/C [53]: 88.5% | viability, T/C [54]: 97.7% | viability, T/C [55]: 99.5% | viability, T/C [56]: 116% | viability, T/C [7]: 77.1% | viability, T/C [8]: 79.6% | viability, T/C [9]: 83.1% | viability, T/C [10]: 93.9% | viability, T/C [11]: 108% | viability, T/C [12]: 104% | viability, T/C [13]: 81.5% | viability, T/C [14]: 77.9% | viability, T/C [15]: 76.9% | viability, T/C [16]: 82.1% | viability, T/C [17]: 93.2% | viability, T/C [18]: 103% | viability, T/C [19]: 76.7% | viability, T/C [20]: 91.1% | viability, T/C [21]: 103% | viability, T/C [22]: 69.4% | viability, T/C [23]: 83.4% | viability, T/C [24]: 95.9% | viability, T/C [25]: 87.9% | viability, T/C [26]: 76% | viability, T/C [27]: 88.2% | viability, T/C [28]: 94% | viability, T/C [29]: 76.4% | viability, T/C [30]: 95.9%

Structure (SMILES): COc1c(OCCCN2CCOCC2)ccc2c3n(c(=NC(=O)c4cnc(N)nc4)nc12)CCN3
viability, T/C (compound 0.01 µM): 91.7% [middle of 8 runs] | viability, T/C (compound 0.0316 µM): 88.2% [middle of 8 runs] | viability, T/C (compound 0.1 µM): 75.5% [middle of 8 runs] | viability, T/C (compound 0.316 µM): 67.3% [middle of 8 runs] | viability, T/C (compound 1 µM): 65.1% [middle of 8 runs] | IC50 (compound alone, run of 06/13/2023): > 1 µM

Structure (SMILES): Cn1cnc2c(F)c(Nc3ccc(Br)cc3Cl)c(C(=O)NOCCO)cc21
viability, T/C (compound 0.00949 µM): 85.4% [middle of 4 runs] | viability, T/C (compound 0.949 µM): 79.5% [middle of 4 runs] | IC50 (curve of compound): > 3 µM

Structure (SMILES): CC(Cn1ccc(-c2ccc(C#N)c(Cl)c2)n1)NC(=O)c1cc(C(C)O)[nH]n1 (stereo not drawn) + Cc1nc(NC(=O)N2CCCC2C(N)=O)sc1-c1ccnc(C(C)(C)C(F)(F)F)c1
IC50 [1]: > 10 µM | IC50 [2]: > 10 µM | IC50 [3]: > 10 µM | IC50 [4]: > 10 µM | IC50 [5]: > 10 µM | IC50 [6]: > 10 µM | viability, T/C [7]: 85.3% | viability, T/C [8]: 111% | viability, T/C [9]: 70.8% | viability, T/C [10]: 92.2% | viability, T/C [11]: 93.3% | viability, T/C [12]: 114% | viability, T/C [13]: 102% | viability, T/C [14]: 76.3% | viability, T/C [15]: 74.3% | viability, T/C [16]: 76.6% | viability, T/C [17]: 88.2% | viability, T/C [18]: 90% | viability, T/C [19]: 96.9% | viability, T/C [20]: 90.5% | viability, T/C [21]: 86.1% | viability, T/C [22]: 76.9% | viability, T/C [23]: 82.5% | viability, T/C [24]: 85.7% | viability, T/C [25]: 88.6% | viability, T/C [26]: 69.9% | viability, T/C [27]: 71.5% | viability, T/C [28]: 71.6% | viability, T/C [29]: 87.9% | viability, T/C [30]: 86.9% | viability, T/C [31]: 80.5% | viability, T/C [32]: 93% | viability, T/C [33]: 89.7% | viability, T/C [34]: 78.7% | viability, T/C [35]: 80.2% | viability, T/C [36]: 84.7% | viability, T/C [37]: 64.8% | viability, T/C [38]: 65.2% | viability, T/C [39]: 74.8% | viability, T/C [40]: 61.4% | viability, T/C [41]: 69.6% | viability, T/C [42]: 66.6%

Continued, in another order:

IC50 [1]: > 10 µM | IC50 [2]: > 10 µM | IC50 [3]: > 10 µM | IC50 [4]: > 10 µM | IC50 [5]: > 10 µM | IC50 [6]: > 10 µM
Structure (SMILES): C=CC(=O)N1CCN(c2nc(=O)n(-c3c(C)ccnc3C(C)C)c3nc(-c4c(O)cccc4F)c(F)cc23)C(C)C1 (stereo not drawn) + CC(Nc1ncnc2nc[nH]c12)c1cc2cccc(Cl)c2c(=O)n1-c1ccccc1
viability, T/C [7]: 77.6% | viability, T/C [8]: 82.8% | viability, T/C [9]: 100% | viability, T/C [10]: 85.2% | viability, T/C [11]: 75.2% | viability, T/C [12]: 77.9% | viability, T/C [13]: 95.2% | viability, T/C [14]: 77.9% | viability, T/C [15]: 82% | viability, T/C [16]: 93.6% | viability, T/C [17]: 78.1% | viability, T/C [18]: 90.2% | viability, T/C [19]: 104% | viability, T/C [20]: 94.2% | viability, T/C [21]: 79.4% | viability, T/C [22]: 88.7% | viability, T/C [23]: 83.8% | viability, T/C [24]: 72.8% | viability, T/C [25]: 106% | viability, T/C [26]: 80.7% | viability, T/C [27]: 84.8% | viability, T/C [28]: 84.4% | viability, T/C [29]: 77.3% | viability, T/C [30]: 70.6% | viability, T/C [31]: 97.6% | viability, T/C [32]: 96.6% | viability, T/C [33]: 77.5% | viability, T/C [34]: 90.4% | viability, T/C [35]: 85.5% | viability, T/C [36]: 81% | viability, T/C [37]: 116% | viability, T/C [38]: 98.7% | viability, T/C [39]: 109% | viability, T/C [40]: 99.2% | viability, T/C [41]: 92.3% | viability, T/C [42]: 83%

IC50 (curve of compound): 4.11 µM [middle of 4 runs]
Structure (SMILES): CC1(C)CCC(Nc2ncc(C(F)(F)F)c(-c3c[nH]c4c(P(C)(C)=O)c(C#N)ccc34)n2)CN1 (stereo not drawn)
viability, T/C (compound 0.1 µM): 76.4% [middle of 4 runs] | viability, T/C (compound 0.316 µM): 102% [middle of 4 runs] | viability, T/C (compound 1 µM): 104% [middle of 4 runs] | viability, T/C (compound 3.16 µM): 62.5% [middle of 4 runs] | viability, T/C (compound 10 µM): 7.89% [middle of 4 runs]

IC50 [43]: 3.92 µM | IC50 [44]: 3.61 µM | IC50 [1]: 4.16 µM | IC50 [2]: 3.16 µM | IC50 [3]: 3.46 µM | IC50 [4]: 3.23 µM
Structure (SMILES): CC1(C)CCC(Nc2ncc(C(F)(F)F)c(-c3c[nH]c4c(P(C)(C)=O)c(C#N)ccc34)n2)CN1 (stereo not drawn) + CC(Nc1ccc2c(c1)OCCn1cc(N3C(=O)OCC3C(F)F)nc1-2)C(N)=O
viability, T/C [45]: 73.8% | viability, T/C [46]: 84.7% | viability, T/C [47]: 86.4% | viability, T/C [48]: 98.7% | viability, T/C [49]: 59.7% | viability, T/C [50]: 7.81% | viability, T/C [51]: 71.8% | viability, T/C [52]: 70.3% | viability, T/C [53]: 85% | viability, T/C [54]: 99.8% | viability, T/C [55]: 55.6% | viability, T/C [56]: 7.27% | viability, T/C [7]: 66.1% | viability, T/C [8]: 72.4% | viability, T/C [9]: 93.3% | viability, T/C [10]: 108% | viability, T/C [11]: 63.9% | viability, T/C [12]: 5.65% | viability, T/C [13]: 74.4% | viability, T/C [14]: 85.3% | viability, T/C [15]: 87.1% | viability, T/C [16]: 105% | viability, T/C [17]: 50% | viability, T/C [18]: 5.2% | viability, T/C [19]: 68.2% | viability, T/C [20]: 81.9% | viability, T/C [21]: 90.2% | viability, T/C [22]: 93.7% | viability, T/C [23]: 53.9% | viability, T/C [24]: 4.99% | viability, T/C [25]: 78.5% | viability, T/C [26]: 83.1% | viability, T/C [27]: 91.1% | viability, T/C [28]: 72.9% | viability, T/C [29]: 51.5% | viability, T/C [30]: 5.93%
